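96-well plates; 48 h exposure; 5 concentrations. Endpoints by linear interpolation between flanking doses. Not reached: highest tested concentration assigned. TGI is the concentration that stops growth completely.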

We go through 16 compounds from PubChem BioAssay (NCI).

The subject of one test is MDA-N. Put plainly: NCI anticancer screen, dose series, 48 h.
In the case of `CC12CC(C#N)(C#N)C(C#N)(CO1)C(=N)O2` (stereo not given), the TGI is greater than 100 µM.

In the case of `COc1ccc(OC)c(N2C(=O)CSC2c2cc(OC)c(OC)c(OC)c2)c1` (stereo not given), the TGI was greater than 100 µM.

Compound `COc1ccc(CCN=C2OCc3ccccc32)cc1OC` yielded a TGI greater than 100 µM.

With `Cc1ccc(NC(=S)NNC(=O)c2cc(-c3ccccc3)nc3ccccc23)cc1`, the TGI is 12.7 µM.

The compound `O=C(O)c1cccnc1` had a TGI greater than 100 µM.

As for `COc1ccc(-c2nc(SCC(=O)N/N=C/c3ccc(O)c(OC)c3)[nH]c2-c2ccc(OC)cc2)cc1`, the TGI is 52.3 µM.

Consider `Cc1cn(CCCCCOC(=O)NC(CCCN=C(N)N)C(=O)O)c(=O)[nH]c1=O` (stereo not given), for which the TGI worked out at 31.3 µM.

Turning to `COc1ccc(C(=O)/C=C/c2ccncc2)cc1OC`, the TGI amounted to 26.2 µM.

Compound `CC(C)(C)NC(=O)N1N=C(c2ccccc2)C1c1ccccc1` (stereo not given) had a TGI greater than 100 µM.

With `CC(C)(C)C(=O)OC(N)/C=C/c1ccccc1` (stereo not given), the TGI is greater than 100 µM.

`O=C(CCc1cc(O)cc(O)c1)NCCc1cc(O)cc(O)c1` came in with a TGI greater than 100 µM.

As to `CC1(C)OC(=C(C#N)C#N)C(C#N)=C1/C=C/c1ccncc1`, the TGI turned out to be 7.27 µM.

As to `C[C@@H]1CCC2[C@@H](C)[C@@H](OCCO[C@H]3OC4O[C@@]5(C)CCC6[C@H](C)CCC([C@H]3C)[C@@]46OO5)OC3O[C@@]4(C)CCC1[C@]32OO4` (stereo not given in full), the TGI is greater than 100 µM.

For a further test, the system named is HCT-116 colon. Description: NCI anticancer screen, dose series, 48 h.
The compound `CC(CCC#N)(CCC#N)C(=O)CC(O)(C(F)(F)F)C(F)(F)F` registered a TGI of 7.57 µM.

Regarding `CC(C)(C)[Si](C)(C)OC1/C(=C/C#N)C(n2ccc(=O)[nH]c2=O)OC1CO` (stereo not given), the TGI was greater than 100 µM.

`COc1ccc(-c2c(C#N)c(O)n(NS(=O)(=O)c3ccc(C)cc3)c(=O)c2C#N)cc1` gave a TGI greater than 100 µM.

The compound `CC12CC(C#N)(C#N)C(C#N)(CO1)C(=N)O2` (stereo not given) showed a TGI greater than 100 µM.

`COc1ccc(OC)c(N2C(=O)CSC2c2cc(OC)c(OC)c(OC)c2)c1` (stereo not given) yielded a TGI greater than 100 µM.

Compound `COc1ccc(CCN=C2OCc3ccccc32)cc1OC` came in with a TGI of 71.3 µM.

In turn, `Cc1ccc(NC(=S)NNC(=O)c2cc(-c3ccccc3)nc3ccccc23)cc1` registered a TGI of 21.3 µM.

Turning to `O=C(O)c1cccnc1`, the TGI is greater than 100 µM.

Turning to `COc1ccc(-c2nc(SCC(=O)N/N=C/c3ccc(O)c(OC)c3)[nH]c2-c2ccc(OC)cc2)cc1`, the TGI stood at 33.3 µM.

On to `Cc1cn(CCCCCOC(=O)NC(CCCN=C(N)N)C(=O)O)c(=O)[nH]c1=O` (stereo not given), for which the TGI was greater than 100 µM.

`COc1ccc(C(=O)/C=C/c2ccncc2)cc1OC` showed a TGI of 18.9 µM.

The compound `CC(C)(C)NC(=O)N1N=C(c2ccccc2)C1c1ccccc1` (stereo not given) yielded a TGI of 52.8 µM.

`CC(C)(C)C(=O)OC(N)/C=C/c1ccccc1` (stereo not given) registered a TGI greater than 100 µM.

With `O=C(CCc1cc(O)cc(O)c1)NCCc1cc(O)cc(O)c1`, the TGI is greater than 100 µM.

`CC1(C)OC(=C(C#N)C#N)C(C#N)=C1/C=C/c1ccncc1`: the TGI turned out to be 3.46 µM.

In turn, `C[C@@H]1CCC2[C@@H](C)[C@@H](OCCO[C@H]3OC4O[C@@]5(C)CCC6[C@H](C)CCC([C@H]3C)[C@@]46OO5)OC3O[C@@]4(C)CCC1[C@]32OO4` (stereo not given in full) came in with a TGI greater than 100 µM.

A further test deals with ACHN renal. Description: NCI anticancer screen, dose series, 48 h.
In turn, `CC(CCC#N)(CCC#N)C(=O)CC(O)(C(F)(F)F)C(F)(F)F` registered a TGI of 20.2 µM.

The compound `CC(C)(C)[Si](C)(C)OC1/C(=C/C#N)C(n2ccc(=O)[nH]c2=O)OC1CO` (stereo not given) showed a TGI greater than 100 µM.

`COc1ccc(-c2c(C#N)c(O)n(NS(=O)(=O)c3ccc(C)cc3)c(=O)c2C#N)cc1`: the TGI is greater than 100 µM.

Take `CC12CC(C#N)(C#N)C(C#N)(CO1)C(=N)O2` (stereo not given): the TGI is greater than 100 µM.

Compound `COc1ccc(OC)c(N2C(=O)CSC2c2cc(OC)c(OC)c(OC)c2)c1` (stereo not given) displayed a TGI greater than 100 µM.

The compound `COc1ccc(CCN=C2OCc3ccccc32)cc1OC` returned a TGI greater than 100 µM.

In the case of `Cc1ccc(NC(=S)NNC(=O)c2cc(-c3ccccc3)nc3ccccc23)cc1`, the TGI is 31.3 µM.

As for `O=C(O)c1cccnc1`, the TGI is greater than 100 µM.

For `COc1ccc(-c2nc(SCC(=O)N/N=C/c3ccc(O)c(OC)c3)[nH]c2-c2ccc(OC)cc2)cc1`, the TGI turned out to be 32.5 µM.

Regarding `Cc1cn(CCCCCOC(=O)NC(CCCN=C(N)N)C(=O)O)c(=O)[nH]c1=O` (stereo not given), the TGI is greater than 100 µM.

As for `COc1ccc(C(=O)/C=C/c2ccncc2)cc1OC`, the TGI amounted to 28.1 µM.

In turn, `CC(C)(C)NC(=O)N1N=C(c2ccccc2)C1c1ccccc1` (stereo not given) yielded a TGI greater than 100 µM.

Consider `CC(C)(C)C(=O)OC(N)/C=C/c1ccccc1` (stereo not given), for which the TGI was greater than 100 µM.

The compound `O=C(CCc1cc(O)cc(O)c1)NCCc1cc(O)cc(O)c1` displayed a TGI greater than 100 µM.

On to `CC1(C)OC(=C(C#N)C#N)C(C#N)=C1/C=C/c1ccncc1`, for which the TGI amounted to 3.39 µM.

In turn, `C[C@@H]1CCC2[C@@H](C)[C@@H](OCCO[C@H]3OC4O[C@@]5(C)CCC6[C@H](C)CCC([C@H]3C)[C@@]46OO5)OC3O[C@@]4(C)CCC1[C@]32OO4` (stereo not given in full) yielded a TGI greater than 100 µM.

A further test has as its system UO-31 renal. Put plainly: NCI anticancer screen, dose series, 48 h.
The compound `CC(CCC#N)(CCC#N)C(=O)CC(O)(C(F)(F)F)C(F)(F)F` showed a TGI of 13.1 µM.

On to `CC(C)(C)[Si](C)(C)OC1/C(=C/C#N)C(n2ccc(=O)[nH]c2=O)OC1CO` (stereo not given), for which the TGI was greater than 100 µM.

Take `CC12CC(C#N)(C#N)C(C#N)(CO1)C(=N)O2` (stereo not given): the TGI was greater than 100 µM.

For `COc1ccc(OC)c(N2C(=O)CSC2c2cc(OC)c(OC)c(OC)c2)c1` (stereo not given), the TGI was greater than 100 µM.

`COc1ccc(CCN=C2OCc3ccccc32)cc1OC` registered a TGI greater than 100 µM.

In turn, `Cc1ccc(NC(=S)NNC(=O)c2cc(-c3ccccc3)nc3ccccc23)cc1` displayed a TGI of 25.5 µM.

`O=C(O)c1cccnc1` had a TGI greater than 100 µM.

In turn, `COc1ccc(-c2nc(SCC(=O)N/N=C/c3ccc(O)c(OC)c3)[nH]c2-c2ccc(OC)cc2)cc1` came in with a TGI greater than 100 µM.

Compound `Cc1cn(CCCCCOC(=O)NC(CCCN=C(N)N)C(=O)O)c(=O)[nH]c1=O` (stereo not given) returned a TGI greater than 100 µM.

Compound `COc1ccc(C(=O)/C=C/c2ccncc2)cc1OC` showed a TGI of 28.1 µM.

Compound `CC(C)(C)NC(=O)N1N=C(c2ccccc2)C1c1ccccc1` (stereo not given) returned a TGI of 63.1 µM.

As for `CC(C)(C)C(=O)OC(N)/C=C/c1ccccc1` (stereo not given), the TGI is greater than 100 µM.

On to `O=C(CCc1cc(O)cc(O)c1)NCCc1cc(O)cc(O)c1`, for which the TGI is greater than 100 µM.

The compound `CC1(C)OC(=C(C#N)C#N)C(C#N)=C1/C=C/c1ccncc1` displayed a TGI of 8.34 µM.

Turning to `C[C@@H]1CCC2[C@@H](C)[C@@H](OCCO[C@H]3OC4O[C@@]5(C)CCC6[C@H](C)CCC([C@H]3C)[C@@]46OO5)OC3O[C@@]4(C)CCC1[C@]32OO4` (stereo not given in full), the TGI is greater than 100 µM.

The subject of another test is RPMI-8226 leukemia. Description: NCI anticancer screen, dose series, 48 h.
`COc1ccc(-c2c(C#N)c(O)n(NS(=O)(=O)c3ccc(C)cc3)c(=O)c2C#N)cc1` registered a TGI of 54.3 µM.

The compound `COc1ccc(OC)c(N2C(=O)CSC2c2cc(OC)c(OC)c(OC)c2)c1` (stereo not given) gave a TGI greater than 100 µM.

As for `Cc1ccc(NC(=S)NNC(=O)c2cc(-c3ccccc3)nc3ccccc23)cc1`, the TGI was determined as 39.2 µM.

Compound `O=C(O)c1cccnc1` had a TGI greater than 100 µM.

For the compound `Cc1cn(CCCCCOC(=O)NC(CCCN=C(N)N)C(=O)O)c(=O)[nH]c1=O` (stereo not given), the TGI came out at 57 µM.

`CC(C)(C)NC(=O)N1N=C(c2ccccc2)C1c1ccccc1` (stereo not given) gave a TGI of 46 µM.

`CC(C)(C)C(=O)OC(N)/C=C/c1ccccc1` (stereo not given) yielded a TGI greater than 100 µM.

Regarding `O=C(CCc1cc(O)cc(O)c1)NCCc1cc(O)cc(O)c1`, the TGI was greater than 100 µM.

Compound `CC1(C)OC(=C(C#N)C#N)C(C#N)=C1/C=C/c1ccncc1` came in with a TGI of 4.21 µM.

The compound `C[C@@H]1CCC2[C@@H](C)[C@@H](OCCO[C@H]3OC4O[C@@]5(C)CCC6[C@H](C)CCC([C@H]3C)[C@@]46OO5)OC3O[C@@]4(C)CCC1[C@]32OO4` (stereo not given in full) registered a TGI greater than 100 µM.
